Measurements reported in US20200207734A1, “HETEROCYCLIC COMPOUND AND USE THEREOF” (Takeda Pharmaceutical Company Limited, priority 2017, published 2020).

Each molecule was assayed against T1, human orexin type 2 receptor (Homo sapiens, UniProt O43614) (assay: Measurement of orexin type 2 receptor agonist activity (calcium fluorescence, CHO cells expressing hOX2R)). Conditions: test compound 3 μM; CHO cells expressing human OX2 receptor; DMSO = 0%, orexin A (human) = 100%.
T1 construct: human orexin type 2 receptor cDNA was inserted into pcDNA3.1(+) plasmid vector (Invitrogen); expressed in transfected cells
T1 sequence (O43614 1-444): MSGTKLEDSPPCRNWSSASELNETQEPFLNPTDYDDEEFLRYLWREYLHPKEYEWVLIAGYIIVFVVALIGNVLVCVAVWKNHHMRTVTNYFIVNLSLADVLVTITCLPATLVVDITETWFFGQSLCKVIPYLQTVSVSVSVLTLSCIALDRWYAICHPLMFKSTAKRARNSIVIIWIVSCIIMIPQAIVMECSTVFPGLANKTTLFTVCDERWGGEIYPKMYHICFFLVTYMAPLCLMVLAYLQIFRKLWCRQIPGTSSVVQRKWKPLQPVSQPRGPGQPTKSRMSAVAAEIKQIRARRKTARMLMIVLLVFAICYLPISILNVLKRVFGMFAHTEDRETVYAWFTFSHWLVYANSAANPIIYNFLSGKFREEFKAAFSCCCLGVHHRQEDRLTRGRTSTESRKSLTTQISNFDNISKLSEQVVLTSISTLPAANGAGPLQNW
Type: cell-based
How it was run: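 CHO-dhfr cells stably expressing hOX2R, loaded with Fluo-4 AM in HBSS/20 mM HEPES/0.1% BSA with probenecid, then given test compound. Calcium fluorescence was read for about 2 min 40 sec. Activity (%) was scaled between DMSO (0%) and 10 nM final human orexin A (100%).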
In the case of CS(=O)(=O)N[C@H]1CCN(C(=O)C2CCO2)[C@H]1Cc1cccc(-c2cccc(F)c2)c1 (stereo partly drawn) [Example 328, N-((2S,3S)-2-((3′-fluorobiphenyl-3-yl)methyl)-1-(oxetan-2-ylcarbonyl)pyrrolidin-3-yl)methanesulfonamide], the “OX2R agonist activity (3 μM, %)” value is reported as 104%.
With CS(=O)(=O)N[C@H]1CCN(C(=O)C2(O)CCC2)[C@H]1Cc1csc(-c2cc(F)cc(F)c2)n1 [Example 339, N-((2S,3S)-2-((2-(3,5-difluorophenyl)-1,3-thiazol-4-yl)methyl)-1-((1-hydroxycyclobutyl)carbonyl)pyrrolidin-3-yl)methanesulfonamide] the “OX2R agonist activity (3 μM, %)” value was 102%.
For CS(=O)(=O)N[C@H]1CCN(C(=O)N2CCC2)[C@H]1Cc1csc(-c2cc(F)cc(F)c2)n1 [Example 340, N-((2S,3S)-1-(azetidin-1-ylcarbonyl)-2-((2-(3,5-difluorophenyl)-1,3-thiazol-4-yl)methyl)pyrrolidin-3-yl)methanesulfonamide], the “OX2R agonist activity (3 μM, %)” value was 103%.
In the case of CS(=O)(=O)N[C@H]1CCN(C(=O)N2CC(F)C2)[C@H]1Cc1cccc(-c2cccc(F)c2)c1 [Example 341, N-((2S,3S)-1-((3-fluoroazetidin-1-yl)carbonyl)-2-((3′-fluorobiphenyl-3-yl)methyl)pyrrolidin-3-yl)methanesulfonamide], the “OX2R agonist activity (3 μM, %)” value is reported as 98%.
With CS(=O)(=O)N[C@H]1CCN(C(=O)N2CC(F)(F)C2)[C@H]1Cc1cccc(-c2cccc(F)c2)c1 [Example 342, N-((2S,3S)-1-((3,3-difluoroazetidin-1-yl)carbonyl)-2-((3′-fluorobiphenyl-3-yl)methyl)pyrrolidin-3-yl)methanesulfonamide] the “OX2R agonist activity (3 μM, %)” value was 109%.
In the case of CC1CCN1C(=O)N1CC[C@H](NS(C)(=O)=O)[C@@H]1Cc1cccc(-c2cccc(F)c2)c1 (stereo partly drawn) [Example 343, N-((2S,3S)-2-((3′-fluorobiphenyl-3-yl)methyl)-1-((2-methylazetidin-1-yl)carbonyl)pyrrolidin-3-yl)methanesulfonamide], the “OX2R agonist activity (3 μM, %)” value is reported as 107%.
In the case of CS(=O)(=O)N[C@H]1CCN(C(=O)C2(O)CCC2)[C@H]1Cc1cccc(-c2cc(F)cc(F)c2)c1 [Example 344, N-((2S,3S)-2-((3′,5′-difluorobiphenyl-3-yl)methyl)-1-((1-hydroxycyclobutyl)carbonyl)pyrrolidin-3-yl)methanesulfonamide], the “OX2R agonist activity (3 μM, %)” value is reported as 99%.
With CS(=O)(=O)N[C@H]1CCN(C(=O)N2CCC2)[C@H]1Cc1cccc(-c2cc(F)cc(F)c2)c1 [Example 345, N-((2S,3S)-1-(azetidin-1-ylcarbonyl)-2-((3′,5′-difluorobiphenyl-3-yl)methyl)pyrrolidin-3-yl)methanesulfonamide] the “OX2R agonist activity (3 μM, %)” value was 93%.
In the case of CS(=O)(=O)N[C@H]1CCN(C(=O)C2(C#N)CCC2)[C@H]1Cc1cccc(-c2cccc(F)c2)c1 [Example 346, N-((2S,3S)-1-((1-cyanocyclobutyl)carbonyl)-2-((3′-fluorobiphenyl-3-yl)methyl)pyrrolidin-3-yl)methanesulfonamide], the “OX2R agonist activity (3 μM, %)” value is reported as 107%.
With CS(=O)(=O)N[C@H]1CCN(C(=O)N2CC3(CC3)C2)[C@H]1Cc1cccc(-c2cccc(F)c2)c1 [Example 347, N-((2S,3S)-1-(5-azaspiro[2.3]hex-5-ylcarbonyl)-2-((3′-fluorobiphenyl-3-yl)methyl)pyrrolidin-3-yl)methanesulfonamide] the “OX2R agonist activity (3 μM, %)” value was 87%.
In the case of CCS(=O)(=O)N[C@H]1CCN(C(=O)N2CCC2)[C@H]1Cc1csc(-c2cc(F)cc(F)c2)n1 [Example 348, N-((2S,3S)-1-(azetidin-1-ylcarbonyl)-2-((2-(3,5-difluorophenyl)-1,3-thiazol-4-yl)methyl)pyrrolidin-3-yl)ethanesulfonamide], the “OX2R agonist activity (3 μM, %)” value is reported as 109%.
For CC(C)(C)C(=O)N1CC[C@H](NS(C)(=O)=O)[C@@H]1Cc1cccc(-c2cccc(F)c2)c1F [Example 349, N-((2S,3S)-2-((2,3′-difluorobiphenyl-3-yl)methyl)-1-(2,2-dimethylpropanoyl)pyrrolidin-3-yl)methanesulfonamide], the “OX2R agonist activity (3 μM, %)” value was 99%.
For CS(=O)(=O)N[C@H]1CCN(C(=O)C2CCC2)[C@H]1Cc1cccc(-c2cccc(F)c2)c1F [Example 350, N-((2S,3S)-1-(cyclobutylcarbonyl)-2-((2,3′-difluorobiphenyl-3-yl)methyl)pyrrolidin-3-yl)methanesulfonamide], the “OX2R agonist activity (3 μM, %)” value was 99%.
In the case of CC1(C(=O)N2CC[C@H](NS(C)(=O)=O)[C@@H]2Cc2cccc(-c3cccc(F)c3)c2F)CC1 [Example 351, N-((2S,3S)-2-((2,3′-difluorobiphenyl-3-yl)methyl)-1-((1-methylcyclopropyl)carbonyl)pyrrolidin-3-yl)methanesulfonamide], the “OX2R agonist activity (3 μM, %)” value is reported as 106%.
With CS(=O)(=O)N[C@H]1CCN(C(=O)N2CCC2)[C@H]1Cc1cccc(-c2cccc(F)c2)c1F [Example 352, N-((2S,3S)-1-(azetidin-1-ylcarbonyl)-2-((2,3′-difluorobiphenyl-3-yl)methyl)pyrrolidin-3-yl)methanesulfonamide] the “OX2R agonist activity (3 μM, %)” value was 102%.
In the case of CN(C)C(=O)N1CC[C@H](NS(C)(=O)=O)[C@@H]1Cc1cccc(-c2cc(F)cc(F)c2)c1 [Example 366, (2S,3S)-2-((3′,5′-difluorobiphenyl-3-yl)methyl)-N,N-dimethyl-3-((methylsulfonyl)amino)pyrrolidine-1-carboxamide], the “OX2R agonist activity (3 μM, %)” value is reported as 100%.
CCS(=O)(=O)N[C@H]1CCN(C(=O)N(C)C)[C@H]1Cc1cccc(-c2cccc(F)c2)c1F [Example 373, (2S,3S)-2-((2,3′-difluorobiphenyl-3-yl)methyl)-3-((ethylsulfonyl)amino)-N,N-dimethylpyrrolidine-1-carboxamide] was tested, and the “OX2R agonist activity (3 μM, %)” value was 96%.
CC(C)(O)C(=O)N1CC[C@H](NS(C)(=O)=O)[C@@H]1Cc1cccc(-c2cccc(F)c2)c1F [Example 387, N-((2S,3S)-2-((2,3′-difluorobiphenyl-3-yl)methyl)-1-(2-hydroxy-2-methylpropanoyl)pyrrolidin-3-yl)methanesulfonamide] was tested, and the “OX2R agonist activity (3 μM, %)” value was 106%.
In the case of CCS(=O)(=O)N[C@H]1CCN(C(=O)C(C)(C)O)[C@H]1Cc1cccc(-c2cccc(F)c2)c1F [Example 389, N-((2S,3S)-2-((2,3′-difluorobiphenyl-3-yl)methyl)-1-(2-hydroxy-2-methylpropanoyl)pyrrolidin-3-yl)ethanesulfonamide], the “OX2R agonist activity (3 μM, %)” value is reported as 102%.
In the case of CC(C)(O)C(=O)N1CC[C@H](NS(C)(=O)=O)[C@@H]1Cc1cccc(-c2cc(F)cc(F)c2)c1F [Example 395, N-((2S,3S)-1-(2-hydroxy-2-methylpropanoyl)-2-((2,3′,5′-trifluorobiphenyl-3-yl)methyl)pyrrolidin-3-yl)methanesulfonamide], the “OX2R agonist activity (3 μM, %)” value is reported as 104%.
For CCS(=O)(=O)N[C@H]1CCN(C(=O)N(C)C)[C@H]1Cc1cccc(-c2cc(F)cc(F)c2)c1F [Example 399, (2S,3S)-3-((ethylsulfonyl)amino)-N,N-dimethyl-2-((2,3′,5′-trifluorobiphenyl-3-yl)methyl)pyrrolidine-1-carboxamide], the “OX2R agonist activity (3 μM, %)” value was 107%.
In the case of CC(C)C(=O)N1CC[C@H](NS(C)(=O)=O)[C@@H]1Cc1cccc(-c2cc(F)cc(F)c2)c1F [Example 402, N-((2S,3S)-1-isobutyryl-2-((2,3′,5′-trifluorobiphenyl-3-yl)methyl)pyrrolidin-3-yl)methanesulfonamide], the “OX2R agonist activity (3 μM, %)” value is reported as 107%.
In the case of CCS(=O)(=O)N[C@H]1CCN(C(=O)C(C)(C)O)[C@H]1Cc1cccc(-c2cc(F)cc(F)c2)c1 [Example 404, N-((2S,3S)-2-((3′,5′-difluorobiphenyl-3-yl)methyl)-1-(2-hydroxy-2-methylpropanoyl)pyrrolidin-3-yl)ethanesulfonamide], the “OX2R agonist activity (3 μM, %)” value is reported as 100%.
For CC(C)(O)C(=O)N1CC[C@H](NS(=O)(=O)CF)[C@@H]1Cc1cccc(-c2cccc(F)c2)c1F [Example 417, N-((2S,3S)-2-((2,3′-difluorobiphenyl-3-yl)methyl)-1-(2-hydroxy-2-methylpropanoyl)pyrrolidin-3-yl)-1-fluoromethanesulfonamide], the “OX2R agonist activity (3 μM, %)” value was 110%.
With CC(C)(O)C(=O)N1CC[C@H](NS(=O)(=O)CF)[C@@H]1Cc1cccc(-c2cc(F)cc(F)c2)c1 [Example 421, N-((2S,3S)-2-((3′,5′-difluorobiphenyl-3-yl)methyl)-1-(2-hydroxy-2-methylpropanoyl)pyrrolidin-3-yl)-1-fluoromethanesulfonamide] the “OX2R agonist activity (3 μM, %)” value was 106%.
CC(C)(O)C(=O)N1CC[C@H](NS(=O)(=O)CF)[C@@H]1Cc1cccc(-c2cc(F)cc(F)c2)c1F [Example 423, 1-fluoro-N-((2S,3S)-1-(2-hydroxy-2-methylpropanoyl)-2-((2,3′,5′-trifluorobiphenyl-3-yl)methyl)pyrrolidin-3-yl)methanesulfonamide] was tested, and the “OX2R agonist activity (3 μM, %)” value was 109%.
